Among the data in patent publication US9000028B2, “Indole and indazole compounds as an inhibitor of cellular necrosis” (LG Life Sciences Ltd., priority 2007, dated 2015) are EC50 values, retold here.

For orientation: EC50 means the concentration that produces a half-maximal response.

Where only a bound is given, the exact number is not on record here.

One test has as its system primary hepatocytes isolated from rats. Kind of test: Hepatocyte protective effect against substances deriving hepatocyte toxicity (WST-1 viability). The test is classed as cell-based. To be noted: Rattus norvegicus, Hepatocyte, doxorubicin, 24-48 h, read-out: EC50, cell protective effects against doxorubicin in hepatocytes. Here is the method: Various endogenous/exogenous attacks on the cells trigger the mechanisms of cell death which is broadly classified into two types, i.e. apoptosis or necrosis. Using these cell death mechanisms, in the present experimental example, primary hepatocytes isolated from rats were treated with drugs which were clinically shown to result in serious side-effects of hepatocyte toxicity or various chemicals which derive cell death, and the compounds synthesized in the Examples were estimated for their hepatocyte protective effects, after 24-48 h. The substances used to derive hepatocyte death include CCl4, ActD, H2O2, doxorubicin, anti-Fas Ab/Actinomycin D, acetaminophen, EtOH, CdCl2, palmitate, stearate, cyclophosphamide, terfenadine, diclofenac, simvastatin, and adefovir. Primary hepatocytes were isolated using the method of Seglen PO (Experimental Cell Research 74 (1972) pp 450-454). Briefly, hepatocytes were isolated according to the two-step collagenase perfusion method, and dead cells were removed by low speed (500 rpm) centrifugation for 10 min using percoll gradient (Kreamer B L etc, In Vitro Cellular & Developmental Biology 22 (1986) pp 201-211). During this step, the viability of cells was maintained 90% or above. The cells were suspended in HepatoZYME media (Gibco BRL), and the number of cells was counted. 1.5×10^4 cells in 100 μl were placed into the collagen-coated 96-well plate (BD biocoat), and adhered on the bottom for 3-4 h.
In order to assess the hepatocyte protective effect, above adhered cells were pretreated with the Example compounds for 30 min. At this time, the concentration of the Example compounds were serially diluted by 2-fold or 3-fold over 5 steps starting from 30 uM, 10 uM or 1 uM depending on the experiments, and the final concentration of DMSO was adjusted to 0.2%. 30 min after the treatment by compounds, cells were treated by the substances deriving hepatocyte death or hepatotoxic drugs at the concentrations indicated in Table 1. After 24-48 h, the viability of cells was determined to estimate the hepatocyte protective effects. The viability of cells was determined using WST-1 (MK-400, […]) method by the absorbance at 440 nm. Hepatocyte protective effects of the Example compounds were represented by “EC50,” which was calculated from measured values. “EC50” herein means the concentration of the compound at which 50% of maximum protective effect is observed in the experiment.
For orientation: Formazan colour is commonly taken as a measure of viable cells.
On to `COc1ccc(-c2n[nH]c3c(NC4CCCC4)cccc23)cc1` [Example 157, Cyclopentyl-[3-(4-methoxyphenyl)-1H-indazol-7-yl)-amine], for which the EC50 is 900 nM. Regarding `O=S1(=O)CCN(Cc2cc(NC3CCOCC3)c3[nH]c(-c4ccccc4)cc3c2)CC1` [Example 36, (Tetrahydropyran-4-yl)[2-phenyl-5-(1,1-dioxo-thiomorpholin-4-yl)methyl-1H-indol-7-yl]amine], the EC50 came out at 63 nM.

`Cc1cc(NC2CCC(=O)CC2)c2[nH]c(-c3ccccn3)cc2c1` [Example 20, (1-Cyclohexanon-4-yl)-[5-methyl-2-(pyridin-2-yl)-1H-indol-7-yl]-amine]: the EC50 was 300 nM. Same read-out and setting: under `Clc1cc(NC2CCC3(CC2)OCCO3)c2[nH]c(-c3ccccc3)cc2c1` [Example 53, (1,4-Dioxaspiro[4.5]decan-8-yl)-(5-chloro-2-phenyl-1H-indol-7-yl)-amine] stands 40 nM. As to `O=C(O)Cc1ccc(-c2cc3cc(Cl)cc(NC4CCCC4)c3[nH]2)cc1` [Example 140, 2-[4-(5-Chloro-7-cyclopentylamino-1H-indol-2-yl)phenyl]-acetic acid], the EC50 was found to be 130 nM. Same read-out and setting: next, `Fc1cc(NC2CCN(C3CCOCC3)CC2)c2[nH]c(-c3ccccc3)cc2c1` [Example 61, [1-(Tetrahydropyran-4-yl)piperidin-4-yl]-(5-fluoro-2-phenyl-1H-indol-7-yl)amine]: 260 nM; `O=S1(=O)CCN(Cc2cc(NC3CCCC3)c3[nH]c(-c4ccccc4)c(Br)c3c2)CC1` [Example 73, Cyclopentyl-(3-bromo-5-(1,1-dioxo-thiomorpholin-4-yl)methyl-2-phenyl-1H-indol-7-yl)-amine]: 120 nM; `O=C(O)Cc1ccc(-c2cc3cc(Cl)cc(NC4CCOCC4)c3[nH]2)cc1` [Example 141, 2-{4-[5-Chloro-7-(tetrahydropyran-4-yl)amino-1H-indol-2-yl]phenyl}-acetic acid]: 460 nM. Still for that read-out and setting: under `OCc1ccc(-c2cc3cc(Cl)cc(NC4CCCC4)c3[nH]2)cc1` [Example 136, [4-(5-Chloro-7-cyclopentylamino-1H-indol-2-yl)-phenyl]-methanol] stands 50 nM; under `CC(=O)N1CCC(Nc2cc(C)cc3cc(-c4ccccc4)[nH]c23)CC1` [Example 45, 1-[-4-[(5-Methyl-2-phenyl-1H-indol-7-yl)amino]piperidin-1-yl]ethanone], 210 nM.

As for `O=C(O)c1ccccc1-c1cc2cc(Cl)cc(NC3CCCC3)c2[nH]1` [Example 134, 2-(5-Chloro-7-cyclopentylamino-1H-indol-2-yl)-benzoic acid], the EC50 is more than 1000 nM. Consider `c1cc(NC2CCOCC2)c2[nH]ncc2c1` [Example 154, (Tetrahydropyran-4-yl)-(1H-indazol-7-yl)-amine], for which the EC50 was determined as 4200 nM. For the compound `O=S1(=O)CCN(Cc2cc(N(CC3CCOCC3)CC3CCOCC3)c3[nH]c(-c4ccccc4)cc3c2)CC1` [Example 57, Di(tetrahydropyran-4-ylmethyl)-[2-phenyl-5-(1,1-dioxo-thiomorpholin-4-yl)methyl-1H-indol-7-yl]amine], the EC50 turned out to be 270 nM.

With `Cc1cc(NCC2CCCC2)c2[nH]c(-c3ccccn3)cc2c1` [Example 15, Cyclopentylmethyl-[5-methyl-2-(pyridin-2-yl)-1H-indol-7-yl]-amine], the EC50 was determined as 100 nM. For `CN(C)Cc1cccc(-c2cc3cc(Cl)cc(NC4CCOCC4)c3[nH]2)c1` [Example 147, [5-Chloro-2-(3-dimethylaminomethylphenyl)-1H-indol-7-yl]-(tetrahydropyran-4-yl)-amine], the EC50 is 460 nM. On the same count and under the same terms, under `O=S1(=O)CCN(Cc2cc(NC3CCOCC3)c3[nH]cc(-c4ccccc4)c3c2)CC1` [Example 161, (Tetrahydropyran-4-yl)-[5-(1,1-dioxo-thiomorpholin-4-yl)methyl-3-phenyl-1H-indol-7-yl)-amine] stands 360 nM; under `OCCN1CCC(Nc2cc(F)cc3cc(-c4ccccc4)[nH]c23)CC1` [Example 60, 2-[4-[(5-Fluoro-2-phenyl-1H-indol-7-yl)amino]piperidin-1-yl]ethanol], 170 nM.

For the compound `O=C(O)Cc1cc(NC2CCS(=O)(=O)CC2)c2[nH]c(-c3ccccc3)cc2c1` [Example 35, 2-[2-Phenyl-7-(1,1-dioxo-tetrahydro-thiopyran-4-yl)amino-1H-indol-5-yl]-acetic acid], the EC50 turned out to be 630 nM. The same measure, in the same setting: under `O=C(O)Cc1ccc(-c2cc3cc(Cl)cc(NCC4CCOCC4)c3[nH]2)cc1` [Example 139, 2-{4-[5-Chloro-7-(tetrahydropyran-4-ylmethyl)amino-1H-indol-2-yl]phenyl}-acetic acid] stands 330 nM; under `CCOc1cc(NC2CCCC2)c2[nH]c(-c3ccccn3)cc2c1` [Example 10, Cyclopentyl-[5-ethoxy-2-(pyridin-2-yl)-1H-indol-7-yl]-amine], 200 nM; under `Brc1c(-c2ccccc2)[nH]c2c(NC3CCOCC3)cc(CN3CCOCC3)cc12` [Example 162, (Tetrahydropyran-4-yl)-[3-bromo-5-(morpholin-4-yl)methyl-2-phenyl-1H-indol-7-yl]-amine], 700 nM. In the case of `CS(=O)(=O)Nc1ccc(-c2cc3cc(Cl)cc(NC4CCCC4)c3[nH]2)cc1` [Example 84, N-[4-(5-chloro-7-cyclopentylamino-1H-indol-2-yl)-phenyl]methanesulfonamide], the EC50 turned out to be 90 nM.

For `NC(=O)C1CCC(Nc2cc(Cl)cc3cc(-c4ccccc4)[nH]c23)CC1` (centres unmarked) [Example 104, 4-(5-Chloro-2-phenyl-1H-indol-7-yl)amino-cyclohexane-1-carboxylic acid amide], the EC50 amounted to 80 nM.

`c1ccc(-c2cc3cccc(NC4CCOCC4)c3[nH]2)nc1` [Example 8, (Tetrahydropyran-4-yl)-[2-(pyridin-2-yl)-1H-indol-7-yl]-amine]: the EC50 amounted to 2500 nM.

`Cc1cc(NC2CCC(C(=O)O)CC2)c2[nH]c(-c3ccccc3)cc2c1` (centres unmarked) [Example 103, 4-(5-Methyl-2-phenyl-1H-indol-7-yl)amino-cyclohexane-1-carboxylic acid]: the EC50 worked out at 106 nM. The same measure, in the same setting: under `O=C(O)Cc1cccc(-c2cc3cc(Cl)cc(NC4CCOCC4)c3[nH]2)c1` [Example 129, 2-{3-[5-Chloro-7-(tetrahydropyran-4-yl)amino-1H-indol-2-yl]-phenyl}-acetic acid] stands 1160 nM; under `Clc1cc(NC2CCN(Cc3ccccc3)C2)c2[nH]c(-c3ccccc3)cc2c1` (centres unmarked) [Example 51, (1-Benzylpyrrolidin-3-yl)-(5-chloro-2-phenyl-1H-indol-7-yl)-amine], 230 nM; under `OCCc1ccc(-c2cc3cc(Cl)cc(NC4CCOCC4)c3[nH]2)cc1` [Example 137, 2-{4-[5-Chloro-7-(tetrahydropyran-4-yl)amino-1H-indol-2-yl]phenyl}-ethanol], 160 nM. The same measure, in the same setting: under `CC(=O)Nc1ccc(-c2cc3cc(N4CCS(=O)(=O)CC4)cc(NC(C4CCOCC4)C4CCOCC4)c3[nH]2)cc1` [Example 88, Di(tetrahydropyran-4-yl)methyl-{5-(1,1-dioxo-thiomorpholin-4-yl)-2-[4-(acetyl)aminophenyl]-1H-indol-7-yl}-amine] stands more than 2000 nM; under `Clc1cc(NCC2CCOCC2)c2[nH]cc(-c3ccccc3)c2c1` [Example 81, (Tetrahydropyran-4-yl)methyl-(5-chloro-3-phenyl-1H-indol-7-yl)-amine], 110 nM. As for `Clc1cc(NC2CCOCC2)c2[nH]c(-c3ccccc3)cc2c1` [Example 48, (Tetrahydropyran-4-yl)-(5-chloro-2-phenyl-1H-indol-7-yl)-amine], the EC50 worked out at 44 nM. The same measure, in the same setting: under `O=C(O)C[C@@H]1CSC(c2cc(NC3CCCC3)c3[nH]c(-c4ccccc4)cc3c2)=N1` [Example 121, 2-[(R)-2-(7-cyclopentylamino-2-phenyl-1H-indol-5-yl)-4,5-dihydro-thiazol-4-yl]-acetic acid] stands 200 nM. As for `c1ccc(-c2cc3cccc(NC4CCCC4)c3[nH]2)nc1` [Example 7, Cyclopentyl-[2-(pyridin-2-yl)-1H-indol-7-yl]amine], the EC50 is 500 nM. Turning to `CC(=O)N1CCC(Nc2cc(C)cc3cc(-c4ccccn4)[nH]c23)CC1` [Example 12, 1-[4-[(5-Methyl-2-(pyridin-2-yl)-1H-indol-7-yl)-amino]piperidin-1-yl]ethanone], the EC50 worked out at 400 nM.

Still in this test, the particulars now being: doxorubicin; rat primary hepatocytes; 24-48 h; read-out: EC50, cell protective effects against doxorubicin in hepatocytes.
Regarding `O=C1CN(Cc2cc(NC3CCCC3)c3[nH]c(-c4cccc(F)c4)cc3c2)CCN1` [Example 38, Cyclopentyl-[2-(3-fluoro)phenyl-5-(2-oxo-piperazin-4-yl)methyl-1H-indol-7-yl]amine], the EC50 was determined as 110 nM.
